Source: ChEMBL document CHEMBL4715733, “Nitrobenzofurazan derivatives of N'-hydroxyamidines as potent inhibitors of indoleamine-2,3-dioxygenase 1” (Eur J Med Chem, 2016)

Key:
[1] = target: T1, Indoleamine 2,3-dioxygenase 1 (Homo sapiens, UniProt P14902); experiment: Inhibition of recombinant human IDO1 assessed as N-formylkynurenine formation using L-tryptophan as substrate measured after 1 hr by UV-vis spectrophotometric analysis
[2] = target: Tryptophan 2,3-dioxygenase (Homo sapiens, UniProt P48775); experiment: Inhibition of recombinant human TDO assessed as N-formylkynurenine formation using L-tryptophan as substrate measured after 1 hrs by UV-vis spectrophotometric analysis
[3] = target: T1, Indoleamine 2,3-dioxygenase 1; experiment: Inhibition of human IDO1 in IFN-gamma-induced human MDA-MB-231 cells assessed as N-formylkynurenine formation using L-tryptophan as substrate pretreated for 4 hrs followed substrate addition measured after 5 hrs by UV-vis spectrophotometric analysis; assay type: cell-based
[4] = target: T1, Indoleamine 2,3-dioxygenase 1; experiment: Inhibition of recombinant human IDO1 assessed as N-formylkynurenine formation using L-tryptophan as substrate measured after 1.5 hrs by HPLC analysis

Chain of Tryptophan 2,3-dioxygenase (P48775 whole entry): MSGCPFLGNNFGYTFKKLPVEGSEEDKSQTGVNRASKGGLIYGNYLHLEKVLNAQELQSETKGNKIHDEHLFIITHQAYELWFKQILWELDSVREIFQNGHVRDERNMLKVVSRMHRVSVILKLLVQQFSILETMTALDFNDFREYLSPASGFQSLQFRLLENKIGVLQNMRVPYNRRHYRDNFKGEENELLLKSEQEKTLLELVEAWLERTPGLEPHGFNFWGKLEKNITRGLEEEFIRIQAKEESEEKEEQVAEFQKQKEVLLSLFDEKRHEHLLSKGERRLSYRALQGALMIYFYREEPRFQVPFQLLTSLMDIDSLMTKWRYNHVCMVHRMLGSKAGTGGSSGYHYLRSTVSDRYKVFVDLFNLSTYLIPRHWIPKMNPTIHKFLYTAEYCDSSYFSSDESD
T1 sequence (P14902 whole entry): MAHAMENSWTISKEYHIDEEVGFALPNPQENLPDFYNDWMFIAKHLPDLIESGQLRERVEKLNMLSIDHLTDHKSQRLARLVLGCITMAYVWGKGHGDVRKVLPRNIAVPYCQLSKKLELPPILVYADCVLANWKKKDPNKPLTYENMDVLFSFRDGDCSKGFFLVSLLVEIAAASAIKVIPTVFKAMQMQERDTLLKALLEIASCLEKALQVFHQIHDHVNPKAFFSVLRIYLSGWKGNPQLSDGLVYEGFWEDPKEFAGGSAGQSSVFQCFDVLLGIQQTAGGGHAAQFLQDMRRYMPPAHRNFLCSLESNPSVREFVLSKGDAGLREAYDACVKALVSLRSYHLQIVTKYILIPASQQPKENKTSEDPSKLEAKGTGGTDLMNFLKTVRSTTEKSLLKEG

SMILES | IC50 [1] [nM] | IC50 [2] [nM] | IC50 [3] [nM] | IC50 [4] [nM]
O=[N+]([O-])c1ccc(N/C(Cc2ccc(F)cc2F)=N\O)c2nonc12 | 160 | 19000 |  | 
O=[N+]([O-])c1ccc(N/C(=N\O)c2ccccc2F)c2nonc12 | 63 | 110000 | 131 | 56
O=[N+]([O-])c1ccc(N/C(Cc2ccc(F)cc2)=N\O)c2nonc12 | 98 | 65000 | 151 | 73
O=[N+]([O-])c1ccc(N/C(Cc2ccccc2F)=N\O)c2nonc12 | 102 | 30000 | 131 | 75
O=[N+]([O-])c1ccc(N/C(=N\O)c2ccc(Br)cc2)c2nonc12 | 117 | 50000 |  | 
O=[N+]([O-])c1ccc(N/C(Cc2ccc(Cl)cc2)=N\O)c2nonc12 | 127 | 51000 | 110 | 78
O=[N+]([O-])c1ccc(N/C(=N\O)c2cccc(Cl)c2)c2nonc12 | 184 |  |  | 
O=[N+]([O-])c1ccc(N/C(=N\O)c2ccccc2)c2nonc12 | 268 |  |  | 
O=[N+]([O-])c1ccc(N/C(Cc2cccc(Cl)c2)=N\O)c2nonc12 | 199 |  |  | 
O=[N+]([O-])c1ccc(N/C(=N\O)c2ccc(F)c(Br)c2)c2nonc12 | 92 | 47000 | 107 | 106
O=[N+]([O-])c1ccc(N/C(=N\O)c2cccc(F)c2)c2nonc12 | 75 | 45000 | 245 | 84
O=[N+]([O-])c1ccc(N/C(Cc2cccc(F)c2)=N\O)c2nonc12 | 131 |  |  | 
O=[N+]([O-])c1ccc(N/C(=N\O)c2ccccc2Cl)c2nonc12 | 135 |  |  | 
COc1ccc(C/C(=N/O)Nc2ccc([N+](=O)[O-])c3nonc23)cc1 | 128 |  |  | 
O=[N+]([O-])c1ccc(N/C(=N\O)c2ccc(Cl)cc2)c2nonc12 | 113 | 40000 |  | 
O=[N+]([O-])c1ccc(N/C(Cc2ccccc2)=N\O)c2nonc12 | 307 |  |  | 
O=[N+]([O-])c1ccc(N/C(Cc2ccc(Cl)c(Cl)c2)=N\O)c2nonc12 | 39 | 32000 | 71 | 53
O=[N+]([O-])c1ccc(N/C(Cc2ccc(F)c(F)c2)=N\O)c2nonc12 | 59 | 94000 | 50 | 49
Cc1cccc(/C(=N/O)Nc2ccc([N+](=O)[O-])c3nonc23)c1 | 163 |  |  | 
O=[N+]([O-])c1ccc(N/C(=N\O)c2ccccc2Br)c2nonc12 | 80 | 25000 | 66 | 64
Cc1ccc(/C(=N/O)Nc2ccc([N+](=O)[O-])c3nonc23)cc1 | 204 |  |  | 
O=[N+]([O-])c1ccc(N/C(=N\O)c2ccc(F)c(Cl)c2)c2nonc12 | 158 |  |  | 
O=[N+]([O-])c1ccc(N/C(=N\O)c2cccc(Br)c2)c2nonc12 | 105 | 20000 |  | 
O=[N+]([O-])c1ccc(N/C(=N\O)c2ccc(F)cc2)c2nonc12 | 100 | 21000 | 125 | 60
O=[N+]([O-])c1ccc(N/C(Cc2ccc(Br)cc2)=N\O)c2nonc12 | 112 | 43000 |  | 
Nc1nonc1C(=NO)Nc1ccc(F)c(Cl)c1 |  | 24000 |  | 
